Source: PMC10093837, “Rutin Concentration and Characterization of Rutinosidase in Perennial Buckwheat (Fagopyrum cymosum) and Its Application in Foods” (Foods, 2023)

Tested on: T1, FC rutinosidase
T1 construct: gene f3g; native, purified from dehulled seeds (Q-Sepharose, Superdex 200, Mono Q twice); 58,400 +/- 2700 Da by gel filtration; single isozyme in native-PAGE
Assay: UPLC of released quercetin; Lineweaver-Burk
Type: biochemical, Fagopyrum cymosum
Conditions: 50 mM acetate-LiOH pH 5.0, 20% (v/v) methanol, 25 °C (standard assay)
From the text: UPLC of released quercetin; Lineweaver-Burk on FC rutinosidase

C[C@@H]1O[C@@H](OC[C@H]2O[C@@H](Oc3c(-c4ccc(O)c(O)c4)oc4cc(O)cc(O)c4c3=O)[C@H](O)[C@@H](O)[C@@H]2O)[C@H](O)[C@H](O)[C@H]1O [rutin]
Km: 367 ± 23.5 µM
